Entries after “also recorded” stand apart in the source; their conditions may differ.
Tests used:
[1] = molecular target: T1, Nrf2-MAFG protein complex binding to fluorescein labeled ARE oligos (Homo sapiens, UniProt Q16236); assay: Fluorescence polarization (FP) assay of DNA binding; format: biochemical; conditions: increasing concentration of Nrf2 inhibitor
T1 construct: made in house
T1 sequence (Q16236 1-605): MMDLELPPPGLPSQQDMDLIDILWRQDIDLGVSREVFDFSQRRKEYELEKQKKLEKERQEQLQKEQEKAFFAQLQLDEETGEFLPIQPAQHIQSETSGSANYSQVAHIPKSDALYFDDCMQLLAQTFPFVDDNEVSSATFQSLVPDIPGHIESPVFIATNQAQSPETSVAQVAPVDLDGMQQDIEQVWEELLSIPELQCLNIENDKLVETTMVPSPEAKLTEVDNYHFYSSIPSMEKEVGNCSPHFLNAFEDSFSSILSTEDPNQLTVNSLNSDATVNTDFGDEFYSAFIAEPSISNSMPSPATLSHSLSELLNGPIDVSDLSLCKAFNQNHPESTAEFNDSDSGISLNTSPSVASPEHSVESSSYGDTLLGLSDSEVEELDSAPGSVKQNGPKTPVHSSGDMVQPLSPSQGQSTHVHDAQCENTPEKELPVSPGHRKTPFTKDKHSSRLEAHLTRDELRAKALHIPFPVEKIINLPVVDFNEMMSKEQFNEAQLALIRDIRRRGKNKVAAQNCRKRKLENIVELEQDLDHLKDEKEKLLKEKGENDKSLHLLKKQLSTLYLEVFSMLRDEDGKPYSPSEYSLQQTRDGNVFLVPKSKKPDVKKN
Experimental: To determine if the presently disclosed small molecule inhibitors were specifically interacting with Nrf2 or the Nrf2-MAF protein complex, a fluorescence polarization assay was developed. Ammonium aurintricarboxylate, a potent inhibitor of protein-nucleic acid interactions was used as positive control in the assay. The concentration of budesonide was 10 μM in the assay.
FP assay data showing inhibition of binding of Nrf2-MAFG protein complex to fluorescein labeled ARE oligos in the presence of compound 1 (FIG. 2), compound 4 (FIG. 3), and compound 3 (FIG. 4) are shown. Ammonium aurintricarboxylate (ATA-10 μM), a well-known inhibitor of DNA binding activity, was included as positive control. […] X-axis represents increasing concentration of Nrf2 inhibitor.
Briefly, fluorescein-labeled oligonucleotides corresponding to Anti-oxidant Response Element (ARE) were diluted to the appropriate concentration in PBS. Nrf2/MafG heterodimer was prepared by gel filtration with mixed samples of purified Nrf2 and MafG proteins. MafG/Nrf2 complex was then diluted with the buffer containing Nrf2 inhibitors or buffer only to the appropriate starting concentration and then serially diluted and incubated at 4° C. for 1 h. A mixture containing fluorescein-labeled ARE and purified protein sample was incubated at 4° C. for another 1 h. After pre-warming samples to 25° C. for 2 to 3 min, fluorescence anisotropy and total intensity was measured for each dilution using a FlexStation 3 (Molecular Devices, LLC) in Basic Binding Assay-FP mode. Ammonium aurintricarboxylate (ATA-10 μM), a well-known inhibitor of DNA binding activity, was included as positive control.

[2] = In vivo pharmacokinetic plasma profile; conditions: CD-1 mice; for Compound retained in the blood until / Time by which most of the compound is cleared from the blood: IP 30 mg/kg, IV 3 mg/kg, plasma
Experimental: For the in vivo pharmacokinetic studies, single intraperitoneal (IP; 30 mg/kg) and intravenous (IV; 3 mg/kg) injection was carried out using CD-1 mice. (n=3 per group/time point). Compounds in the plasma were quantified using Mass Spectrometry.

A549 xenograft tumors = assay: A549 lung cancer xenograft assay (flank); format: in vivo, athymic nude mice; conditions: for A549 tumor weight at end of treatment, combination with carboplatin / A549 tumor weight at end of treatment, single agent: compared to vehicle group; for Growth of A549 xenograft tumors, combination with carboplatin / Growth of A549 xenograft tumors, single agent: nude mice, flank; for Growth of A549 xenograft tumors, single agent / Efficacy of compound alone relative to carboplatin, A549 tumors: single agent
Experimental: A549 cells were injected in the flanks of athymic nude mice and once tumor volume reached 50-100 mm^3, treatment was initiated. Vehicle, carboplatin (5 mg/kg daily Monday to Friday), compound 4 (30 mg/kg daily Monday to Friday) or a combination of compound 4 and carboplatin was administered for three weeks. Values represent tumor volume ±s.e.m. for all groups (A). […] Tumors were excised and weight at the end of treatment period. […] For each group, pretreatment available lung volume was defined as 100% and compared with post-treatment lung volumes. Mice in the vehicle treated group died at 3 weeks;
A549 cells were injected in the flanks of athymic nude mice and once tumor volume reached 50-100 mm^3, treatment was initiated. Vehicle, carboplatin (20 mg/kg; 2 days/week), compound#1 (20 mg/kg 4 days/week) or a combination of compound 1 and carboplatin was administered for four weeks. Values represent tumor volume ±s.e.m. for all groups. […] Tumors were excised and weight at the end of treatment period. […] H460 cells were injected in the flanks of athymic nude mice and once tumor volume reached 50-100 mm^3, treatment was initiated. Vehicle, carboplatin (10 mg/kg; 5 days/week), compound 1 (30 mg/kg 5 days/week) or a combination of compound 1 and carboplatin was administered for three weeks. Values represent tumor volume ±s.e.m.;
A549 cells were injected in the flanks of athymic nude mice and once tumor volume reached 50-100 mm^3, treatment was initiated. Vehicle, carboplatin (10 mg/kg; 5 days/week), compound 3 (60 mg/kg 4 days/week) or a combination of compound 3 and carboplatin was administered for 15 days. Tumor growth was monitored till 28 days. Values represent tumor volume ±s.e.m. for all groups. […] Values represent tumor volume ±s.e.m.;
For the A549 lung cancer xenograft assay, five million cells in 100 μL of PBS were implanted in the flank of nude mice. Two to three weeks post cell implantation, when the tumors were about 50 to 100 mm^3 in dimension, the mice were randomly divided into four groups: vehicle, chemotherapeutic drug, Nrf2 inhibitor, and chemotherapeutic drug with an Nrf2 inhibitor. The mice were treated with the drugs for 2 to 4 weeks. Tumor volume was recorded biweekly.

[3] = tested on: pancreatic cancer cells (Panc1); assay: Clonogenic assay in Panc1 pancreatic cancer cells; format: cell-based; conditions: for Growth of Panc1 cells, combination with gemcitabine: gemcitabine (10 nM in figure legends)
Experimental: (§1) (A-B) Panc1 and MiaPaCa cells were treated gemcitabine (10 nM) singly or in combination with compound 1 for 72 h. At the end of treatment, regular growth media was added and cells were further incubated for 8-10 days and stained with crystal violet;
(§2) For the clonogenic assays, 1,000 cells/well were plated in a 6-well plate. The next day, the cells were treated with vehicle (DMSO), Nrf2 inhibitor, a chemotherapeutic drug, or a combination of Nrf2 and chemotherapeutic drugs for 48 hrs. The drug containing media was then replaced with regular growth media and the cells were incubated for an additional 10 days. At the end of incubation period, the colonies were stained with Crystal Violet and imaged.

[4] = tested on: pancreatic cancer cells (MiaPaCa); assay: Clonogenic assay in MiaPaCa pancreatic cancer cells; format: cell-based; conditions: for Growth of MiaPaCa cells, combination with gemcitabine: gemcitabine (10 nM in figure legends)
Experimental: as §1, §2

| Binding of Nrf2-MAFG protein complex to fluorescein labeled ARE oligos [1] | Compound retained in the blood until [2] | Time by which most of the compound is cleared from the blood [2] | Structure (SMILES) | Retention time in the blood, comparison of compounds 3, 4 and 1 [2] | A549 tumor weight at end of treatment, combination with carboplatin (A549 xenograft tumors) | A549 tumor weight at end of treatment, single agent (A549 xenograft tumors) | Growth of A549 xenograft tumors, combination with carboplatin (A549 xenograft tumors) | Growth of A549 xenograft tumors, single agent (A549 xenograft tumors) | Efficacy of compound alone relative to carboplatin, A549 tumors (A549 xenograft tumors) | Growth of Panc1 cells, single agent [3] | Growth of Panc1 cells, combination with gemcitabine [3] | Growth of MiaPaCa cells, single agent [4] | Growth of MiaPaCa cells, combination with gemcitabine [4] | A549 tumor growth at Day 43, 4 weeks from the end of treatment, combination with carboplatin (A549 xenograft tumors; compound 60 mg/kg 4 days/week + carboplatin 10 mg/kg 5 days/week for 15 days) |
| --- | --- | --- | --- | --- | --- | --- | --- | --- | --- | --- | --- | --- | --- | --- |
| Dose dependent reduction in binding | about 24 hr |  | O=C(Nc1ncc(Cc2ccc(C(F)(F)F)cc2)s1)c1ccc(-c2cccc([N+](=O)[O-])c2)o1 [Compound 1] | retained in the blood for the longest time | significantly reduced tumor weight | significantly reduced tumor weight | showed inhibition of A549 xenograft tumors; also recorded: sensitized A549 lung tumors to carboplatin therapy | showed inhibition of A549 xenograft tumors; also recorded: shows anti-tumor activity as a single agent | comparable to carboplatin | suppressed the growth of two different pancreatic cell lines | enhance the cytotoxicity of gemcitabine; also recorded: potentiates the cytotoxicity of standard care chemotherapy drugs (gemcitabine) | suppressed the growth of two different pancreatic cell lines | enhance the cytotoxicity of gemcitabine; also recorded: potentiates the cytotoxicity of standard care chemotherapy drugs (gemcitabine) |  |
| Dose dependent reduction in binding |  | about 8 hrs | CC1(C)CC2CC(C)(CN2S(=O)(=O)c2ccc(C(=O)Nc3ccc(Cl)c(S(=O)(=O)N4CCOCC4)c3)cc2)C1 (centres unmarked) [compound 3] | cleared the fastest |  |  | inhibited the growth; also recorded: sensitized A549 lung tumors to carboplatin therapy | inhibited the growth; also recorded: significantly attenuated tumor growth till 28 days | comparable to carboplatin | suppressed the growth of two different pancreatic cell lines; also recorded: significant growth inhibitory effect as a single agent | enhance the cytotoxicity of gemcitabine | suppressed the growth of two different pancreatic cell lines; also recorded: significant growth inhibitory effect as a single agent | enhance the cytotoxicity of gemcitabine | significant growth retardation as compared to group treated with single agent |
| Dose dependent reduction in binding | about 12 hr | ≤ 24 h | Cc1ccccc1C(=O)N1CCc2cc(-c3nc(NC(=O)Cc4ccc5c(c4)OCO5)sc3C)ccc21 [compound 4] |  | significantly reduced tumor weight | significantly reduced tumor weight | tumor size and tumor weight was reduced; also recorded: sensitized A549 lung tumors to carboplatin therapy | tumor size and tumor weight was reduced; also recorded: shows anti-tumor activity as a single agent | comparable to carboplatin | suppressed the growth of two different pancreatic cell lines; also recorded: significant growth inhibitory activity as single agent | enhance the cytotoxicity of gemcitabine; also recorded: potentiates the cytotoxicity of standard care chemotherapy drugs (gemcitabine) | suppressed the growth of two different pancreatic cell lines; also recorded: significant growth inhibitory activity as single agent | enhance the cytotoxicity of gemcitabine; also recorded: potentiates the cytotoxicity of standard care chemotherapy drugs (gemcitabine) |  |
